Inconclusive results and toxic doses are left out. The calls were made as follows: active = survival T/C of 150% or more; inactive = T/C below 125% in these data.
Test system: P388 leukemia ip, CD2F1 mice, survival T/C
Assay: NCI In Vivo Anticancer Drug Screen. Data for tumor model P388 Leukemia (intraperitoneal) in CD2F1 (CDF1) mice
Details: endpoint: median survival time, higher = longer survival
Summary of the method: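 Mice carrying the transplanted tumor received test compound or vehicle. Survival was recorded in each group, and the value is the treated-group measurement divided by that of the vehicle-treated control group.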

[1] = dose: 60.0 mg/kg/injection, schedule: Q01DX005 (ip), vehicle: saline with Tween-80
[2] = dose: 120.0 mg/kg/injection, schedule: Q01DX005 (ip), vehicle: saline with Tween-80
[3] = dose: 240.0 mg/kg/injection, schedule: Q01DX005 (ip), vehicle: saline with Tween-80
[4] = dose: 50.0 mg/kg/injection, schedule: Q01DX005 (ip), vehicle: Klucel (hydroxypropylcellulose) (HPC)
[5] = dose: 100.0 mg/kg/injection, schedule: Q01DX005 (ip), vehicle: Klucel (hydroxypropylcellulose) (HPC)
[6] = dose: 200.0 mg/kg/injection, schedule: Q01DX005 (ip), vehicle: Klucel (hydroxypropylcellulose) (HPC)
[7] = dose: 50.0 mg/kg/injection, schedule: Q01DX005 (ip), vehicle: saline
[8] = dose: 100.0 mg/kg/injection, schedule: Q01DX005 (ip), vehicle: saline
[9] = dose: 200.0 mg/kg/injection, schedule: Q01DX005 (ip), vehicle: saline
[10] = dose: 50.0 mg/kg/injection, schedule: Q01DX009 (ip), vehicle: saline with Tween-80
[11] = dose: 100.0 mg/kg/injection, schedule: Q01DX009 (ip), vehicle: saline with Tween-80
[12] = dose: 200.0 mg/kg/injection, schedule: Q01DX009 (ip), vehicle: saline with Tween-80
[13] = dose: 60.0 mg/kg/injection, schedule: Q01DX005 (ip), vehicle: Klucel (hydroxypropylcellulose) (HPC)
[14] = dose: 120.0 mg/kg/injection, schedule: Q01DX005 (ip), vehicle: Klucel (hydroxypropylcellulose) (HPC)
[15] = dose: 240.0 mg/kg/injection, schedule: Q01DX005 (ip), vehicle: Klucel (hydroxypropylcellulose) (HPC)
[16] = dose: 50.0 mg/kg/injection, schedule: Q01DX005 (ip), vehicle: saline with Tween-80
[17] = dose: 100.0 mg/kg/injection, schedule: Q01DX005 (ip), vehicle: saline with Tween-80

Measured: T/C

O=[N+]([O-])c1cccc(N2CN(c3ccccc3)NC(c3ccccc3)=N2)c1
inactive: dose: 50.0 mg/kg/injection, schedule: Q04DX003 (ip), vehicle: saline with Tween-80 90 % of control | dose: 200.0 mg/kg/injection, schedule: Q04DX003 (ip), vehicle: saline with Tween-80 107 % of control

N=CC1=C(O)CCOC1=O
inactive: dose: 100.0 mg/kg/injection, schedule: Q01DX001 (ip), vehicle: saline 99 % of control | dose: 200.0 mg/kg/injection, schedule: Q01DX001 (ip), vehicle: saline 99 % of control | dose: 400.0 mg/kg/injection, schedule: Q01DX001 (ip), vehicle: saline 100 % of control

CCCCCCC(=O)/C=c1\c(CC(=O)CCCCCC)nc2nnc(N)n12
inactive: [1] 96 % of control | [2] 100 % of control | [3] 88 % of control

O=C(Nc1ccccc1)/C(N=Nc1ccccc1Cl)=N\Nc1cc(S(=O)(=O)O)ccc1Cl
inactive: [4] 103 % of control | [5] 102 % of control | [6] 107 % of control

C/C(N)=N/OCc1ccccc1
inactive: dose: 50.0 mg/kg/injection, schedule: Q01DX005 (ip), vehicle: Klucel + Tween-80 98 % of control | [7] 92 % of control | dose: 100.0 mg/kg/injection, schedule: Q01DX005 (ip), vehicle: Klucel + Tween-80 102 % of control | [8] 107 % of control | dose: 200.0 mg/kg/injection, schedule: Q01DX005 (ip), vehicle: Klucel + Tween-80 102 % of control | [9] 102 % of control

CC1(C)OC(=O)C(Cc2c[nH]c3ccccc23)C(=O)O1
inactive: [10] 108 % of control | [11] 100 % of control | [12] 94 % of control

N#CC(C#N)=C(O)/C(=C/c1ccc(Cl)c(Cl)c1)NC(=O)c1ccccc1
inactive: [7] 88 % of control | [8] 88 % of control | [9] 104 % of control

Cn1c(=O)oc2cc(N)c(Br)cc21
inactive: [4] 90 % of control | [5] 92 % of control | [6] 94 % of control

Clc1ccc(C2=NNC(c3ccc(Cl)cc3)=NN2)cc1
inactive: [13] 103 % of control | [14] 102 % of control | [15] 98 % of control

COc1cc([C@H]2c3cc4c(cc3C[C@H]3COC(=O)[C@@H]32)OCO4)cc(OC)c1OC
inactive: dose: 12.5 mg/kg/injection, schedule: Q04DX002 (ip), vehicle: saline with Tween-80 92 % of control | dose: 25.0 mg/kg/injection, schedule: Q04DX002 (ip), vehicle: saline with Tween-80 86 % of control | dose: 50.0 mg/kg/injection, schedule: Q04DX002 (ip), vehicle: saline with Tween-80 89 % of control

CP1(=O)CC2=C(CC2)C1
inactive: dose: 50.0 mg/kg/injection, schedule: Q01DX009 (ip), vehicle: saline 108 % of control | dose: 100.0 mg/kg/injection, schedule: Q01DX009 (ip), vehicle: saline 103 % of control | dose: 200.0 mg/kg/injection, schedule: Q01DX009 (ip), vehicle: saline 95 % of control

O=C(O)c1cccc(C(=O)O)c1Sc1ccc(Cl)cc1
inactive: dose: 100.0 mg/kg/injection, schedule: Q04DX002 (ip), vehicle: saline with Tween-80 100 % of control | dose: 200.0 mg/kg/injection, schedule: Q04DX002 (ip), vehicle: saline with Tween-80 105 % of control | dose: 400.0 mg/kg/injection, schedule: Q04DX002 (ip), vehicle: saline with Tween-80 100 % of control

CCCCCCCCCc1ccc(OC(C)OCCOCCOCC)cc1 (stereo not drawn)
inactive: [1] 98 % of control | [2] 98 % of control | [3] 98 % of control

CCN(CCC#N)C(=O)c1cccc([N+](=O)[O-])c1
inactive: [13] 102 % of control | [14] 94 % of control

COC(=O)C1CCCCOCCOCCOCCOCCOCCCCCC1=O (stereo not drawn)
inactive: [16] 102 % of control | [17] 102 % of control | dose: 200.0 mg/kg/injection, schedule: Q01DX005 (ip), vehicle: saline with Tween-80 94 % of control

Cn1c(Cl)c(/C=C2/N=C(c3ccccc3)OC2=O)c2ccccc21
inactive: dose: 100.0 mg/kg/injection, schedule: Q01DX001 (ip), vehicle: Klucel (hydroxypropylcellulose) (HPC) 94 % of control | dose: 200.0 mg/kg/injection, schedule: Q01DX001 (ip), vehicle: Klucel (hydroxypropylcellulose) (HPC) 94 % of control | dose: 400.0 mg/kg/injection, schedule: Q01DX001 (ip), vehicle: Klucel (hydroxypropylcellulose) (HPC) 94 % of control

CCOc1c(OC)cc(-c2n[nH]c(=S)o2)cc1OC
inactive: dose: 100.0 mg/kg/injection, schedule: Q04DX003 (ip), vehicle: Klucel (hydroxypropylcellulose) (HPC) 101 % of control | dose: 200.0 mg/kg/injection, schedule: Q04DX003 (ip), vehicle: Klucel (hydroxypropylcellulose) (HPC) 95 % of control | dose: 400.0 mg/kg/injection, schedule: Q04DX003 (ip), vehicle: Klucel (hydroxypropylcellulose) (HPC) 100 % of control

CCOC(=O)C1=S=C(SC)N(C)C1=O
inactive: [10] 107 % of control | [11] 107 % of control

CCN(CC)P(CCCCP(N(CC)CC)N(CC)CC)N(CC)CC
inactive: [13] 106 % of control | [14] 103 % of control | [15] 104 % of control

Cc1cc(C)cc(C(=O)NC(c2ccncc2)C(NC(=O)c2cc(C)cc(C)c2)c2ccncc2)c1 (stereo not drawn)
inactive: dose: 25.0 mg/kg/injection, schedule: Q01DX005 (ip), vehicle: saline with Tween-80 92 % of control | [16] 90 % of control | [17] 99 % of control | dose: 400.0 mg/kg/injection, schedule: Q01DX005 (ip), vehicle: saline with Tween-80 92 % of control

Nc1nc(-c2cc(Cl)cc(Cl)c2)cc(-c2cc(-c3cc(Cl)cc(Cl)c3)nc(N)n2)n1
inactive: [1] 100 % of control | [2] 106 % of control | [3] 96 % of control

COc1cc(/C=C2/Cc3ccccc3C2=O)ccc1O
inactive: dose: 60.0 mg/kg/injection, schedule: Q01DX005 (ip), vehicle: saline 106 % of control | dose: 120.0 mg/kg/injection, schedule: Q01DX005 (ip), vehicle: saline 106 % of control | dose: 240.0 mg/kg/injection, schedule: Q01DX005 (ip), vehicle: saline 96 % of control

CC1=NN(C(=O)c2ccncc2)C(=O)C1N=Nc1ccc(S(=O)(=O)Nc2ncccn2)cc1 (stereo not drawn)
inactive: [10] 95 % of control | [11] 91 % of control | [12] 92 % of control

CCCCN(CCCC)C(=N)c1c2ccccc2nc2ccccc12
inactive: dose: 6.25 mg/kg/injection, schedule: Q01DX005 (ip), vehicle: saline 90 % of control | dose: 12.5 mg/kg/injection, schedule: Q01DX005 (ip), vehicle: saline 97 % of control | dose: 25.0 mg/kg/injection, schedule: Q01DX005 (ip), vehicle: saline 103 % of control

C=C(CC1(O)C(C2COC(C)(C)O2)OC2OC(C)(C)OC21)C(=O)OCC (stereo not drawn)
inactive: [7] 96 % of control | [8] 98 % of control | [9] 105 % of control

O=C(Nc1ccc(NC(=O)c2ccc(C3=NCCCN3)cc2)cc1)Nc1ccc(C2=NCCCN2)cc1
active: dose: 10.0 mg/kg/injection, schedule: Q01DX009 (ip), vehicle: saline with Tween-80 163 % of control | dose: 20.0 mg/kg/injection, schedule: Q01DX009 (ip), vehicle: saline 159 % of control
inactive: dose: 10.0 mg/kg/injection, schedule: Q01DX009 (ip), vehicle: saline 113 % of control

Nc1ncc(CCCOc2ccccc2)c(=O)[nH]1
inactive: dose: 100.0 mg/kg/injection, schedule: Q01DX001 (ip), vehicle: saline with Tween-80 90 % of control | dose: 200.0 mg/kg/injection, schedule: Q01DX001 (ip), vehicle: saline with Tween-80 90 % of control | dose: 400.0 mg/kg/injection, schedule: Q01DX001 (ip), vehicle: saline with Tween-80 90 % of control

CN(C)c1ccc(C(=N)Cc2ccc3ccccc3n2)cc1
inactive: dose: 37.5 mg/kg/injection, schedule: Q01DX009 (ip), vehicle: Klucel (hydroxypropylcellulose) (HPC) 106 % of control | dose: 50.0 mg/kg/injection, schedule: Q01DX009 (ip), vehicle: Klucel (hydroxypropylcellulose) (HPC) 92 % of control | dose: 75.0 mg/kg/injection, schedule: Q01DX009 (ip), vehicle: Klucel (hydroxypropylcellulose) (HPC) 98 % of control | dose: 100.0 mg/kg/injection, schedule: Q01DX009 (ip), vehicle: Klucel (hydroxypropylcellulose) (HPC) 95 % of control | dose: 150.0 mg/kg/injection, schedule: Q01DX009 (ip), vehicle: Klucel (hydroxypropylcellulose) (HPC) 109 % of control | dose: 200.0 mg/kg/injection, schedule: Q01DX009 (ip), vehicle: Klucel (hydroxypropylcellulose) (HPC) 100 % of control

— PubChem BioAssay AID330 (DTP/NCI, 2004)
